Source: paper PMC8617944, “Preclinical Pharmacokinetics and Acute Toxicity in Rats of 5-{[(2E)-3-Bromo-3-carboxyprop-2-enoyl]amino}-2-hydroxybenzoic Acid: A Novel 5-Aminosalicylic Acid Derivative with Potent Anti-Inflammatory Activity” (Molecules, 2021)
Read-outs that look alike come from different tables or passages of the source.

How the values were obtained:
[1] = Pharmacokinetic profiles after p.o., i.p. and i.v. administration; assay type: in vivo, Wistar rats; conditions: for absorption half-life: read-out: t1/2a, absorption half-life (converted); for Cmax: read-out: Cmax, maximum plasma concentration; for k el: read-out: Ke, elimination rate constant (converted); for MRT: read-out: MRT, mean residence time; for Tmax: read-out: tmax, time to maximum plasma concentration (converted); for Ka, absorption rate constant: non-compartmental
Experimental: On the same day as C1 administration, the rats (three groups, n = 6) were previously cannulated for compound administration by the p.o., i.p., and i.v. routes. A 24 G catheter was placed in the right lateral tail vein for blood collection. A first group of rats received a single dose of 50 mg/kg applied p.o. with a 20 G gavage needle. A dose of 75 mg/kg of C1 was injected i.p. into the rats in the second group. A single dose of 50 mg/kg was given i.v. to the third group by means of another catheter previously placed in the left lateral tail vein. The doses used in this study were selected based on previous pharmacokinetic studies reported in rats for 5-ASA [60] or for derivatives of this compound [61]. Animals were provided with the standard diet 4 h after dosing. […] The volume of blood removed was supplemented with an equal volume of 0.9% sodium chloride solution. The blood samples were centrifuged at 8000 rpm for 15 min to harvest 100 μL of plasma.
Plasma samples were processed immediately. Briefly, 450 µL of acetonitrile was added to 100 µL of plasma and vortexed for 5 min. Subsequently, 450 µL of methanol was added, and the sample was vortexed again, followed by centrifugation to precipitate the proteins. Finally, 10 µL of the supernatant were used for evaluation of the plasma concentration of C1 by RP-HPLC with the UV detection method, previously validated for the pharmacokinetic and complementary assays herein performed.
The plasma concentration–time data were plotted. […] Pharmacokinetic parameters of C1 were calculated on Kinetica 5.0 software (Adept Scientific Ltd), including the maximum plasma concentration (Cmax), time to maximum plasma concentration (tmax), elimination half-life (t1/2e), the area under the plasma concentration-time curve from time zero to the last measurable concentration (AUC0-t), the area under the plasma concentration-time curve from time zero to infinity (AUCtot), mean residence time (MRT), clearance (CL), and apparent volume of distribution (Vd).

[2] = Blood/plasma partitioning (BP ratio); assay type: in vitro ADME, rats; conditions: rat whole blood, 37 °C, 4 h
Experimental: Appropriate amounts of C1 stock solution at 10 mg/mL were spiked into whole blood to obtain samples (prepared in triplicate) at a final concentration of 1, 5, and 10 and 20 μg/mL (in a final volume of 600 μL), to be incubated at 37 °C for 4 h. Plasma was harvested from blood samples by centrifuging at 8000 rpm for 15 min, and then the concentration of C1 was established using the RP-HPLC method and interpolating the response area into a standard curve prepared with C1 and blank plasma. The BP ratio was calculated by dividing 5 and 10 µg/mL, respectively, by the concentration found in plasma separated from blood samples. The concentration of C1 in blood cells is assumed to be equal to its unbound concentration in plasma.

myeloperoxidase (MPO) = system: myeloperoxidase (MPO); parameters: method as in ref 32, 33 = [32]; doi:10.1016/j.arabjc.2016.12.026; 32. Cabrera Pérez L.C. Gutiérrez Sánchez M. Mendieta Wejebe J.E. Hernández Rodríguez M. Fragoso Vázquez M.J. Salazar J.R. Correa Basurto J. Padilla Martínez I.I. Rosales Hernández M.C. Novel 5-aminosa || [33]; 33. Correa Basurto J. Rosales Hernández M.C. Mendieta Wejebe J.E. Trujillo Ferrara J.G. Padilla Martínez I.I. Ramírez Durán L.A. Alemán González Duhart D. Síntesis de un derivado del ácido 5-aminosali; conditions: o-dianisidine method; cited from earlier work
[3] = Wistar, rat, plasma, ip, 75 mg/kg, i.p. 75 mg/kg, n = 6
[4] = Wistar, rat, plasma, ip, 75 mg/kg, plasma, i.p. 75 mg/kg, n = 6, read-out: Average Concentration
[5] = Wistar, rat, plasma, ip, 75 mg/kg, plasma, i.p. 75 mg/kg, individual rats, read-out: Concentration (µg/mL), Rat 1-6
[6] = Wistar, rat, plasma, ip, i.p. 75 mg/kg, rats
[7] = Wistar, rat, plasma, iv, 50 mg/kg, i.v. 50 mg/kg, n = 6
[8] = Wistar, rat, plasma, iv, 50 mg/kg, plasma, i.v. 50 mg/kg, n = 6, read-out: Average Concentration
[9] = Wistar, rat, plasma, iv, 50 mg/kg, plasma, i.v. 50 mg/kg, individual rats, read-out: Concentration (µg/mL), Rat 1-6
[10] = Wistar, rat, plasma, iv, i.v. 50 mg/kg, rats
[11] = Wistar, rat, plasma, po, 50 mg/kg, i.g. (p.o.) 50 mg/kg, n = 6
[12] = Wistar, rat, plasma, po, 50 mg/kg, plasma, i.g. (p.o.) 50 mg/kg, individual rats, read-out: Concentration (µg/mL), Rat 1-6
[13] = Wistar, rat, plasma, po, 50 mg/kg, plasma, i.g. (p.o.) 50 mg/kg, n = 6, read-out: Average Concentration
[14] = Wistar, rat, plasma, po, p.o. 50 mg/kg, rats
[15] = two-compartment model, Kinetica 5.0

O=C(/C=C(/Br)C(=O)O)Nc1ccc(O)c(C(=O)O)c1 [Compound C1, 5-{[(2E)-3-bromo-3-carboxyprop-2-enoyl]amino}-2-hydroxybenzoic acid]
concentration at 5 min [1, 3]: 15900 ng/mL
concentration at 10 min [1, 3]: 17600 ng/mL
concentration at 30 min [1, 3]: 19900 ng/mL
concentration at 45 min [1, 3]: 17700 ng/mL
concentration at 60 min [1, 3]: 15200 ng/mL
concentration at 90 min [1, 3]: 11200 ng/mL
concentration at 120 min [1, 3]: 9000 ng/mL
concentration at 180 min [1, 3]: 5200 ng/mL
concentration at 240 min [1, 3]: 2900 ng/mL
absorption half-life ([1]; Wistar, rat, plasma, ip, 75 mg/kg, i.p. 75 mg/kg, rats): 1.3 ± 0.5 h
half-life ([1]; Wistar, rat, plasma, ip, 75 mg/kg, i.p. 75 mg/kg, rats, read-out: t1/2e, elimination half-life (converted)): 1.4 ± 0.2 h
concentration at 20 min [1, 4]: 19.8 µg/mL
concentration at 300 min [1, 5]: 0 µg/mL
concentration at 300 min [1, 4]: 0 µg/mL
concentration at 360 min [1, 5]: 0 µg/mL
concentration at 360 min [1, 4]: 0 µg/mL
concentration at 540 min [1, 5]: 0 µg/mL
concentration at 540 min [1, 4]: 0 µg/mL
concentration at 720 min [1, 5]: 0 µg/mL
concentration at 720 min [1, 4]: 0 µg/mL
Cmax [1, 6]: 22000 ± 1000 ng/mL
k el [1, 6]: 0.000139 s⁻¹
MRT [1, 6]: 3.1 ± 0.9 h
Tmax [1, 6]: 0.55 h
concentration at 5 min [1, 7]: 10500 ng/mL
concentration at 10 min [1, 7]: 7800 ng/mL
concentration at 30 min [1, 7]: 5300 ng/mL
concentration at 45 min [1, 7]: 4200 ng/mL
concentration at 60 min [1, 7]: 4000 ng/mL
concentration at 90 min [1, 7]: 3400 ng/mL
concentration at 120 min [1, 7]: 2200 ng/mL
concentration at 180 min [1, 7]: 1500 ng/mL
concentration at 240 min [1, 7]: 1400 ng/mL
half-life ([1]; Wistar, rat, plasma, iv, 50 mg/kg, i.v. 50 mg/kg, rats, read-out: t1/2e, elimination half-life (converted)): ~0.9 h
concentration at 20 min [1, 8]: 6 µg/mL
concentration at 300 min [1, 8]: 1.2 µg/mL
concentration at 360 min [1, 8]: 0.756 µg/mL
concentration at 540 min [1, 9]: 0 µg/mL
concentration at 540 min [1, 8]: 0 µg/mL
concentration at 720 min [1, 9]: 0 µg/mL
concentration at 720 min [1, 8]: 0 µg/mL
clearance ([1]; Wistar, rat, plasma, iv, i.v. 50 mg/kg, rats, read-out: CL, clearance): 24 ± 5 mL/min
C0 ([1]; Wistar, rat, plasma, iv, i.v. 50 mg/kg, rats, read-out: Cp^0, initial plasma concentration): 11000 ± 1900 ng/mL
k el [1, 10]: 0.000222 s⁻¹
MRT [1, 10]: 1.7 ± 0.4 h
Vd ([1]; Wistar, rat, plasma, iv, i.v. 50 mg/kg, rats, read-out: Vd, volume of distribution): 5.2 ± 0.9 L/kg
bioavailability ([1]; Wistar, rat, plasma, oral, 50 mg/kg, p.o. 50 mg/kg vs i.v. 50 mg/kg, rats, read-out: absolute oral bioavailability): ~77%
concentration at 5 min [1, 11]: 2200 ng/mL
concentration at 10 min [1, 11]: 2200 ng/mL
concentration at 30 min [1, 11]: 2500 ng/mL
concentration at 45 min [1, 11]: 2100 ng/mL
concentration at 60 min [1, 11]: 2100 ng/mL
concentration at 90 min [1, 11]: 1800 ng/mL
concentration at 120 min [1, 11]: 1500 ng/mL
concentration at 180 min [1, 11]: 1000 ng/mL
concentration at 240 min [1, 11]: 665 ng/mL
absorption half-life ([1]; Wistar, rat, plasma, po, 50 mg/kg, p.o. 50 mg/kg, rats): 1.4 ± 0.3 h
half-life ([1]; Wistar, rat, plasma, po, 50 mg/kg, p.o. 50 mg/kg, rats, read-out: t1/2e, elimination half-life (converted)): > 2.5 h
concentration at 20 min [1, 12]: 2.2 µg/mL
concentration at 20 min [1, 13]: 2.6 µg/mL
concentration at 300 min [1, 13]: 0.5 µg/mL
concentration at 360 min [1, 13]: 0.34 µg/mL
concentration at 540 min [1, 13]: 0.136 µg/mL
concentration at 600 min [1, 12]: 0 µg/mL
concentration at 600 min [1, 13]: 0 µg/mL
concentration at 720 min [1, 12]: 0 µg/mL
concentration at 720 min [1, 13]: 0 µg/mL
Cmax [1, 14]: 2800 ± 100 ng/mL
k el [1, 14]: 0.000111 s⁻¹
MRT [1, 14]: 1.7 ± 0.2 h
Tmax [1, 14]: 0.55 h
half-life ([1]; Wistar, rat, plasma, two-compartment model, Kinetica 5.0, read-out: elimination half-life α (t1/2α)): 0.267 h
half-life ([1]; Wistar, rat, plasma, two-compartment model, Kinetica 5.0, read-out: elimination half-life β (t1/2β) (converted)): 3 h
AUCtot, area under the plasma concentration-time curve from time zero to infinity ([1]; i.p. 75 mg/kg, rats): 2780 ± 69 µg·min/mL
Ka, absorption rate constant ([1]; i.p. 75 mg/kg, rats): 1.4 ± 0.2 h⁻¹
AUCtot, area under the plasma concentration-time curve from time zero to infinity ([1]; i.v. 50 mg/kg, rats): 806 ± 72 µg·min/mL
AUCtot, area under the plasma concentration-time curve from time zero to infinity ([1]; p.o. 50 mg/kg, rats): 618 ± 63 µg·min/mL
Ka, absorption rate constant ([1]; p.o. 50 mg/kg, rats): 0.9 ± 0.1 h⁻¹
t1/2e, elimination half-life ([1]; p.o. 50 mg/kg, rats, 50 mg/kg): 2.5 ± 0.6 h
K12 [1, 15]: 0.018 min⁻¹
K21 [1, 15]: 0.019 min⁻¹
α [1, 15]: 0.042 min⁻¹
BP Ratio ± SD ([2]; 5 µg/mL): 0.54 ± 0.02
BP Ratio ± SD ([2]; 10 µg/mL): 0.40 ± 0.01
inhibition of myeloperoxidase (MPO) (myeloperoxidase (MPO)): comparable to that of indomethacin
